Columns and labels:
5-HT1AR = system: 5-HT1AR; set-up: method as in PMID 27353547; conditions: CHO-K1 cells, Ca2+ mobilisation; ref [8]; read-out: Kb, 5-HT1AR antagonist; cited from earlier work
[1] = Liver, kidney and heart weight after repeated administration; assay type: in vivo, Swiss albino mice; conditions: mice, AZ-853 0.625 mg/kg, AZ-861 1.25 mg/kg
Method: The Swiss albino mice were used in the experiment. AZ-853 and AZ-861 were injected once daily for 16 consecutive days. On the 1st and 15th day the administration of the compounds, 18-h spontaneous animal activity was registered (see below). FST, as described earlier, was performed on the 14th day just before the next treatment. To ensure that the effects observed in FST are not the result of increased motility of animals, on the 13th day, just before the next administration, the locomotor activity was measured as described earlier, from 2 to 6 min after test start, i.e. in the period identical to the duration of FST. Blood and organ collection was performed on the 17th day at 24 h after the last dose and fasting.
The body weight was measured daily immediately prior to administration of the drugs. On the 17th day, the blood was collected from the Swiss albino mice sacrificed by decapitation 20 min after i.p. administration of heparin (2500 units/mouse) and then centrifuged at 600 × g (15 min, 4°C) to separate plasma. The liver, heart, and kidney were also collected and weighed.

[2] = set-up: method as in PMID 27353547; conditions: ref [8]; cited from earlier work

Cn1c(=O)c2c(nc3n(CCCCN4CCN(c5cccc(C(F)(F)F)c5)CC4)ccn23)n(C)c1=O [AZ-861, 1,3-dimethyl-8-(4-(4-(3-(trifluoromethyl)phenyl)piperazin-1-yl)butyl)-1H-imidazo[2,1-f]purine-2,4(3H,8H)-dione]
Kb (5-HT1AR): 1.4 nM
effect on liver, kidney and heart weight (% of total body weight) [1]: neither AZ-853 (0.625 mg/kg) nor AZ-861 (1.25 mg/kg) influenced
estimated log p [2]: 5.75

Cn1c(=O)c2c(nc3n(CCCCN4CCN(c5ccccc5F)CC4)ccn23)n(C)c1=O [AZ-853, 8-(4-(4-(2-fluorophenyl)piperazin-1-yl)butyl)-1,3-dimethyl-1H-imidazo[2,1-f]purine-2,4(3H,8H)-dione]
Kb (5-HT1AR): 2.7 nM
effect on liver, kidney and heart weight (% of total body weight) [1]: neither AZ-853 (0.625 mg/kg) nor AZ-861 (1.25 mg/kg) influenced
estimated log p [2]: 5.34
